Test results: paper PMC5513037, “Examining the influence of specificity ligands and ATP-competitive ligands on the overall effectiveness of bivalent kinase inhibitors” (Proteome Science, 2017)

Columns and labels:
Test in all cases: KAM-matrix competition in K562 lysate;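 for 0.001 uM KAM: median log10 fold change of treatment over DMSO control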;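 for 0.01 uM KAM: median log10 fold change of treatment over DMSO control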;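 for 0.1 uM KAM: median log10 fold change of treatment over DMSO control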;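 for 1 uM KAM: median log10 fold change of treatment over DMSO control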;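 for 10 uM KAM: median log10 fold change of treatment over DMSO control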
Assay type in all cases: binding
ACTR2 = biological target: T1, ACTR2 (Homo sapiens, UniProt P61160);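 for 0.001 uM KAM: median log10 fold change of treatment over DMSO control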;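 for 0.01 uM KAM: median log10 fold change of treatment over DMSO control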;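 for 0.1 uM KAM: median log10 fold change of treatment over DMSO control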;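 for 1 uM KAM: median log10 fold change of treatment over DMSO control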;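 for 10 uM KAM: median log10 fold change of treatment over DMSO control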
T1 construct: endogenous in cells; host or cells: K562
Procedure: (§1) Supplement 12953_2017_125_MOESM1_ESM.zip/MS_Supp Info.xlsx, sheet "KAM" | column: 10 uM KAM; 1 uM KAM; 0.1 uM KAM; 0.01 uM KAM; 0.001 uM KAM; RB50

GUCY2F = biological target: T2, GUCY2F (Homo sapiens, UniProt P51841);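 for 0.001 uM KAM: median log10 fold change of treatment over DMSO control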;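 for 0.01 uM KAM: median log10 fold change of treatment over DMSO control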;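 for 0.1 uM KAM: median log10 fold change of treatment over DMSO control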;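 for 1 uM KAM: median log10 fold change of treatment over DMSO control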;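 for 10 uM KAM: median log10 fold change of treatment over DMSO control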
T2 construct: endogenous in cells; host or cells: K562
T2 sequence (P51841 51-1108): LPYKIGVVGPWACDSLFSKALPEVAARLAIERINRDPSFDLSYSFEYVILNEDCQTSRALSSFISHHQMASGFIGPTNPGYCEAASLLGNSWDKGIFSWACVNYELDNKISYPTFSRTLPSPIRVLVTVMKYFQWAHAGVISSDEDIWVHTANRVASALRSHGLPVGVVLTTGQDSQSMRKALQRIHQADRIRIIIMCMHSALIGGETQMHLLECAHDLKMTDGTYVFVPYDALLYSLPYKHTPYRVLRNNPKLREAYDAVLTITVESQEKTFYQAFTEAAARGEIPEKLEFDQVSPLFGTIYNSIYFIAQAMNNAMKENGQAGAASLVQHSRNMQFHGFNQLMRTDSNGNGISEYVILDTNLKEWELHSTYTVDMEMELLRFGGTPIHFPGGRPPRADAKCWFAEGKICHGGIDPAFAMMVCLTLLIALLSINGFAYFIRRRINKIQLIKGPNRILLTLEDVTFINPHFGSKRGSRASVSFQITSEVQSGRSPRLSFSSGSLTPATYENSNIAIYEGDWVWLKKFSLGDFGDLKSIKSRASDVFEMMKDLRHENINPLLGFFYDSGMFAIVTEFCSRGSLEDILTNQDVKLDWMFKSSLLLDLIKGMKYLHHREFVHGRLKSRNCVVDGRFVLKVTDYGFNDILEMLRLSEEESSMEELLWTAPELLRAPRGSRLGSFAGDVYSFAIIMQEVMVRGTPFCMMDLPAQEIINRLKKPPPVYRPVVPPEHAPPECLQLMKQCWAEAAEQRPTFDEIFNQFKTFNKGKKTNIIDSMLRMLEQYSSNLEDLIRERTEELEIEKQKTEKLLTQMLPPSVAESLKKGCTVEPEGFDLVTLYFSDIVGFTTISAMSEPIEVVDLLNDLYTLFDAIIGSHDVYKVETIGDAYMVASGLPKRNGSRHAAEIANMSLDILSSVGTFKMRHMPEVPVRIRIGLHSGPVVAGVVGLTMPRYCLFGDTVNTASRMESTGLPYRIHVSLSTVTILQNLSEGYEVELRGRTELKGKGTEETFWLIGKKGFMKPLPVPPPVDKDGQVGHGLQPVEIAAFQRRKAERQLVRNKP
Procedure: as §1

SRC = biological target: T3, SRC (Homo sapiens, UniProt P12931)
T3 construct: endogenous in cells; host or cells: K562
Procedure: as §1

ADCK3 = biological target: T4, ADCK3 (Homo sapiens, UniProt Q8NI60);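 for 0.001 uM KAM: median log10 fold change of treatment over DMSO control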;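 for 0.01 uM KAM: median log10 fold change of treatment over DMSO control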;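 for 0.1 uM KAM: median log10 fold change of treatment over DMSO control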;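 for 1 uM KAM: median log10 fold change of treatment over DMSO control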;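 for 10 uM KAM: median log10 fold change of treatment over DMSO control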
T4 construct: endogenous in cells; host or cells: K562
Procedure: as §1

CSK = biological target: T5, CSK (Homo sapiens, UniProt P41240);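 for 0.001 uM KAM: median log10 fold change of treatment over DMSO control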;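 for 0.01 uM KAM: median log10 fold change of treatment over DMSO control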;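 for 0.1 uM KAM: median log10 fold change of treatment over DMSO control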;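 for 1 uM KAM: median log10 fold change of treatment over DMSO control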;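 for 10 uM KAM: median log10 fold change of treatment over DMSO control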
T5 construct: endogenous in cells; host or cells: K562
Procedure: as §1

RPS6KB1 = biological target: T6, RPS6KB1 (Homo sapiens, UniProt P23443);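 for 0.001 uM KAM: median log10 fold change of treatment over DMSO control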;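 for 0.01 uM KAM: median log10 fold change of treatment over DMSO control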;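 for 0.1 uM KAM: median log10 fold change of treatment over DMSO control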;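 for 1 uM KAM: median log10 fold change of treatment over DMSO control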;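 for 10 uM KAM: median log10 fold change of treatment over DMSO control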
T6 construct: endogenous in cells; host or cells: K562
Procedure: as §1

[1] = KAM 0.001-10 uM, read-out: RB50 (the source's name)

T4 sequence (Q8NI60 163-647): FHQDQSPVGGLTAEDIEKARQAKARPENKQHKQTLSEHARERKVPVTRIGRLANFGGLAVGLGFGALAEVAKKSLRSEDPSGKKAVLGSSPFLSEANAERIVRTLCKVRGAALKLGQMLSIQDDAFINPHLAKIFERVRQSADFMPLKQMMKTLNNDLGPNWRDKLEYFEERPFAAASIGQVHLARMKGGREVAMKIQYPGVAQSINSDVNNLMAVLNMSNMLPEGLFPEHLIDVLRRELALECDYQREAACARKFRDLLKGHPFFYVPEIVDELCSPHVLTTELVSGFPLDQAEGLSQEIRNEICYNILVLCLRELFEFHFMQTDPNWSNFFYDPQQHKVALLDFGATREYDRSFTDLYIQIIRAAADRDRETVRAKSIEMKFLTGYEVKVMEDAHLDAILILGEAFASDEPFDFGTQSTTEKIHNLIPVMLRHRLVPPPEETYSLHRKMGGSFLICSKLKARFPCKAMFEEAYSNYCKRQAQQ
T3 sequence (P12931 whole entry): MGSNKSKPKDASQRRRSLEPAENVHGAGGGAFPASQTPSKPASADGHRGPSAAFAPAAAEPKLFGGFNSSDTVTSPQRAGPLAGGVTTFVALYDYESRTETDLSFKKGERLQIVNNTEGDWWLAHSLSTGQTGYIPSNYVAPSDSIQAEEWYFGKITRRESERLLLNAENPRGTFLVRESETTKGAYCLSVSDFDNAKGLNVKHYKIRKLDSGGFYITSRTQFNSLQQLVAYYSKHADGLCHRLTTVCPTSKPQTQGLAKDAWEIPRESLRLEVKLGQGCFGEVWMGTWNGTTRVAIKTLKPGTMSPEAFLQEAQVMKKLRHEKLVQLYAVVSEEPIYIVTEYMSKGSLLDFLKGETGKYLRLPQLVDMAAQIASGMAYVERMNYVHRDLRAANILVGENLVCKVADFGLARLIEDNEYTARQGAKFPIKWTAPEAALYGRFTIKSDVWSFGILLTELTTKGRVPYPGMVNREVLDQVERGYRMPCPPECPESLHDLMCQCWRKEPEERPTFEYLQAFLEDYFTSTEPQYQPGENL
T5 sequence (P41240 whole entry): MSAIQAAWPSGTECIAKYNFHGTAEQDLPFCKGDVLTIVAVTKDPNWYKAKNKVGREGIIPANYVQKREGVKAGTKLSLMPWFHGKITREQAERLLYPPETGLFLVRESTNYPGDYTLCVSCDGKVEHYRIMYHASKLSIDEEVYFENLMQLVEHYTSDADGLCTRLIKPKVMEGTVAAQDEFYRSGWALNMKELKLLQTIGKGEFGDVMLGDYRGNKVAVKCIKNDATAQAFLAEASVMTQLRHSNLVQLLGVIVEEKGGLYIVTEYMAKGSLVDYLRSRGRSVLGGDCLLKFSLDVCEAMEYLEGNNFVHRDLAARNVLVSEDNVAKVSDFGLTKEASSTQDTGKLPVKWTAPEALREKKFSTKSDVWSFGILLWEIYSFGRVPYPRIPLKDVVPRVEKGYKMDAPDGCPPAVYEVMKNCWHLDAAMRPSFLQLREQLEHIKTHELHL
T6 sequence (P23443 whole entry): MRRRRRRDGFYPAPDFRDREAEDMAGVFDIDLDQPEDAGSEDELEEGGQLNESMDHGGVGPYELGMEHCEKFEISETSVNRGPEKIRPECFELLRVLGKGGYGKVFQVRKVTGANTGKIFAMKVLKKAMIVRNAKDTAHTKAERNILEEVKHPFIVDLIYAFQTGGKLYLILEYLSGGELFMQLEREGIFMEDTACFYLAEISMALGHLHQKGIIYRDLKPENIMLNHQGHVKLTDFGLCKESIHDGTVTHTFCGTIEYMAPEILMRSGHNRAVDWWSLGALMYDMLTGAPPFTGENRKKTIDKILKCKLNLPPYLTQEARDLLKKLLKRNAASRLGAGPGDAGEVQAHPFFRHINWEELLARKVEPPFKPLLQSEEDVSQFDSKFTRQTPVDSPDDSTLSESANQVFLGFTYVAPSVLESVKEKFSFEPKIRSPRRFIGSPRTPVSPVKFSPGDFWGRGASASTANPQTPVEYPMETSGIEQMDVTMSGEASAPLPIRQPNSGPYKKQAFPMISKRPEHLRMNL

For `N#CCc1ccc(Nc2nc(NCCCN)cc(Nc3cc(C4CC4)[nH]n3)n2)cc1` [KAM], the IC50 (ACTR2; [1]) was > 10 µM, the “0.001 uM KAM” value (ACTR2; relative to 0 uM KAM = 0) was -0.002123 and the “0.01 uM KAM” value (ACTR2; relative to 0 uM KAM = 0) was 0.01622. For the same compound, the “0.1 uM KAM” value (ACTR2; relative to 0 uM KAM = 0) was 0.01541, the “1 uM KAM” value (ACTR2; relative to 0 uM KAM = 0) was 0.07708 and the “10 uM KAM” value (ACTR2; relative to 0 uM KAM = 0) was 0.05031. The IC50 (GUCY2F; [1]) was > 10 µM, the “0.001 uM KAM” value (GUCY2F; relative to 0 uM KAM = 0) was -0.02463 and the “0.01 uM KAM” value (GUCY2F; relative to 0 uM KAM = 0) was -0.02113. The “0.1 uM KAM” value (GUCY2F; relative to 0 uM KAM = 0) was 0.03818, the “1 uM KAM” value (GUCY2F; relative to 0 uM KAM = 0) was 0.1179 and the “10 uM KAM” value (GUCY2F; relative to 0 uM KAM = 0) was -0.02163. For the same compound, the “median Log10 fold change” value (SRC; 0.001 uM KAM) was -0.003111, the “median Log10 fold change” value (SRC; 0.01 uM KAM) was -0.02243 and the “median Log10 fold change” value (SRC; 0.1 uM KAM) was -0.1125. The “median Log10 fold change” value (SRC; 1 uM KAM) was -0.3083, the “median Log10 fold change” value (SRC; 10 uM KAM) was -0.5006 and the IC50 (SRC; read-out: RB50 (the source's name)) was 1.1 µM. For the same compound, the IC50 (ADCK3; [1]) was > 10 µM, the “0.001 uM KAM” value (ADCK3; relative to 0 uM KAM = 0) was -0.001841 and the “0.01 uM KAM” value (ADCK3; relative to 0 uM KAM = 0) was 0.006632. For the same compound, the “0.1 uM KAM” value (ADCK3; relative to 0 uM KAM = 0) was 0.0007813, the “1 uM KAM” value (ADCK3; relative to 0 uM KAM = 0) was 0.03707 and the “10 uM KAM” value (ADCK3; relative to 0 uM KAM = 0) was -0.06845. For the same compound, the IC50 (CSK; [1]) was > 10 µM, the “0.001 uM KAM” value (CSK; relative to 0 uM KAM = 0) was 0.01067 and the “0.01 uM KAM” value (CSK; relative to 0 uM KAM = 0) was -0.02135. For the same compound, the “0.1 uM KAM” value (CSK; relative to 0 uM KAM = 0) was 0.028, the “1 uM KAM” value (CSK; relative to 0 uM KAM = 0) was -0.04258 and the “10 uM KAM” value (CSK; relative to 0 uM KAM = 0) was -0.03639. The IC50 (RPS6KB1; [1]) was > 10 µM, the “0.001 uM KAM” value (RPS6KB1; relative to 0 uM KAM = 0) was 0.05992 and the “0.01 uM KAM” value (RPS6KB1; relative to 0 uM KAM = 0) was 0.07406. For the same compound, the “0.1 uM KAM” value (RPS6KB1; relative to 0 uM KAM = 0) was 0.2008, the “1 uM KAM” value (RPS6KB1; relative to 0 uM KAM = 0) was 0.1222 and the “10 uM KAM” value (RPS6KB1; relative to 0 uM KAM = 0) was 0.1654.
